Data from patent US20020146424A1, “Polyphenolics for enhancing endothelial cell-mediated fibrinolysis” (priority 2001, published 2002).

Columns and labels:
[1] = test system: cultured HUVECs; experiment: Surface-localized fibrinolytic activity (125I-labeled Glu-Pmg conversion to plasmin) in cultured HUVECs; assay type: cell-based, human; details: 1 hour preincubation; for increase in fibrinolytic activity compared to control: measured 24 hours later; for surface-localized fibrinolytic activity, peak: 10 μM, control 38.0±4.0; for surface-localized fibrinolytic activity, peak / surface-localized fibrinolytic activity, maximum increase: 24 hours after induction; for surface-localized fibrinolytic activity, maximum increase: 0.001 μM, control 38.0 pmol/well
Procedure: Human umbilical vein ECs (HUVECs) were obtained from fresh (discarded) umbilical cords by mild collagenase treatment (type 1, CLS) by the method of Jaffe et al (J. […] ECs were seeded into human fibronectin-coated Petri dishes (9.6 cm^2) or plastic flasks (25 cm^2) and grown to confluency. Cultures were maintained at 37° C. in a humidified 95% air, 5% CO2 atmosphere and re-fed every 48 hours with complete culture medium consisting of Medium 199 (M199) powdered medium containing L-glutamine and Earle's salt, 0.025 M HEPES buffer (pH 7.4), 0.0002 M fresh L-glutamine, 100 units/ml of penicillin, 100 μg/ml streptomycin, 10% heat-deactivated FBS, 90 μg/ml heparin and 50 μg/ml of unpurified ECGF. […] Cells were routinely counted using phase microscopy and a 0.5 mm×0.5 mm counting reticule. Individual HUVEC cultures were routinely examined for their purity and characterized as ECs by their uptake of Dil-Ac-LDL and typical monlayer “cobblestone” tight-packing morphology. Only individual cultures with 95% identifiable ECs were used in these studies. All alcohol induction studies were conducted with confluent cultured HUVECs (in 96-well plates) preincubated in the absence/presence of varying concentration of alcohol (0-0.1%, v/v) for one hour at 37° C., washed two times in DBPS, re-fed with complete 10% serum containing medium and then further incubated at 37° C. in the absence of alcohol for 24 hours. surface-localized fibrinolytic activity was measured as the conversion of ^125-labeled Glu-Pmg levels after 24 hours. All studies were conducted with confluent cultured HUVECs. The cells were preincubated in the absence/presence of varying dilutions (1:1000, 1:500, 1:250, 1:125, 1:62.5) of red wine, de-alcoholized red wine or grape juice for 1 hour at 37° C., washed two times with DPBS, re-fed with complete 10% serum-containing medium, and then further incubated at 37° C. in the absence of these compounds for 24 hours. Surface-localized fibrinolytic activity was measured as the conversion of ^125-labeled Glu-Pmg levels after 24 hours. All polyphenolic induction studies were conducted with confluent cultured HUVECs (in 96-well plates). The cells were preincubated in the absence/presence of varying concentrations (0.001-10 μM) of catechin, epicatechin, quercetin or resveratrol for 1 hour at 37° C., washed two times with DPBS, re-fed with complete 10% serum-containing medium, and then further incubated at 37° C. in the absence of these compounds for 24 hours. Surface-localized fibrinolytic activity was measured by the direct conversion of cell-bound ^125I-labeled Glu-Pmg hours after the initial induction period. […] The generation of either ^125I-labeled plasmin Mr 20-kDa light or Mr 83-kDa heavy chain formation was quantitated by phosphorimaging autoradiography after SDS-PAGE under reduced conditions. […] The cultures were then placed in a water bath at 37° C. to initiate the receptor-bound endogenous PA-mediated conversion of ^125I labeled Glu-Pmg to ^125I-labeled plasmin. Reactions were stopped after 1 and 10 minutes by the rapid addition of 40 μl of hot (56° C.) solubilizing buffer (4% sodium dodecyl sulfate (SDS), 10% glycerol and 0.2M Tris-HCl, pH 6.8). The total solubilized contents of each well containing generated ^125I-labeled plasmin were removed and reduced by the addition of 5% B-mercaptoethanol and boiling for 5 minutes. […] The radioactivity content of either the ^125I-labeled plasmin light- or heavy-chains was determined by quantitative phosphorimaging autoradiography. After electrophoresis, gels were dried and exposed in phosphorimaging cassettes for 16-18 hours. The amount of remaining ^125I-labeled Glu-Pmg and newly generated ^125I-labeled Mr 20-kDa plasmin light chain in each individual gel was quantitated by measuring the radioactivity content in each band by phosphorimaging autoradiography, using a Molecular Dynamics Series […] Phosphorimager in combination with ImageQuant software. […]

[2] = test system: t-PA mRNA; experiment: t-PA mRNA expression in rat aortic endothelium by in situ hybridization after gavage; assay type: in vivo, Sprague Dawley rats; details: 6 hours after gavage; catechin 0.495, epicatechin 0.224, quercetin 0.033, resveratrol 0.0033 mg/kg; ethanol 1.25% v/v
Procedure: (§1) Rats used in in vivo studies were Sprague Dawley rats weighing 250 to 300 grams.
For in vivo studies, 18 male Sprague Dawley rats, 250-300 g, were intubated with Popper feeding tubes (20 gauge, 1.5 inches). The control group of three rats were gavaged with PBS in a final volume of 1 ml. Five experimental groups with three rats per groups were gavaged with 1 ml of PBS containing either individual phenolic (catechin, 0.495; epicatechin, 0.224; quercetin, 0.033; and resveratrol, 0.0033 mg/kg body weight), or ethanol 1.25% v/v, for final 0.05% blood level. These doses of phenolics and ethanol are equivalent, on a per kg basis, to the amount consumed in about 2 glasses (25 ml) of red wine by a 70 kg adult. The t-PA and u-PA mRNA expression was analyzed at 6 hours after treatment, when the rats were anesthetized with ketamine/rompin. The thoracic aorta was perfusion-fixed and paraffin embedded to evaluate the effects of ethanol and individual phenolics on the induction of t-PA and u-PA mRNA expression in vivo in the aortic endothelium using in situ hybridization using riboprobes.
To insure that the t-PA and u-PA sense and antisense riboprobes were specific for their respective mRNAs in tissue sections, the sequence-verified riboprobes were hybridized with purified rat liver RNA, rich in t-PA and u-PA mRNA.

[3] = test system: PAI-1 mRNA; experiment: PAI-1 mRNA expression in rat thoracic aorta endothelial cells by in situ hybridization after gavage; assay type: in vivo; details: 6 hours after gavage; catechin 0.495, epicatechin 0.224, quercetin 0.033, resveratrol 0.0033 mg/kg; ethanol 1.25% v/v
Procedure: as §1
In in vivo studies of rat thoracic aorta, eighteen male rats were treated by gavage as indicated above. One control group of three rats was gavaged with 1 ml of saline. Five experimental groups with three rats per group were then gavaged with 1 ml saline containing one of the following: (i) 1.25% (v/v) ethanol, (i) 0.495 mg catechin per kg body weight, (iii) 0.224 mg epicatechin per kg body weight, (iv) 0.033 mg quercetin per kg body weight, or (v) 0.0033 mg resveratrol per kg body weight.
At 3 and 6 hours following gavage, the animals were anesthetized with ketamine/rompin (10 and 1.5 mg/100 g body weight, respectively). The portal vein was cannulated and the vasculature perfused with cold, heparinized saline for 5 minutes to remove blood. […] The thoracic aorta was perfused-fixed and paraffin embedded to evaluate the short-term effects of alcohol/phenolics on PA1-I mRNA expression using in situ hybridization techniques.

Molecule | increase in fibrinolytic activity compared to control ([1]; 0.05% (v/v) ethanol, p=0.05) | increase in fibrinolytic activity compared to control ([1]; 0.1% (v/v) ethanol, p=0.0055) | t-PA mRNA chromogenic signal intensity (antisense riboprobe) in aortic tissue sections vs PBS-treated animals [2] | expression of PAI-1 mRNA in endothelium of thoracic aorta [3] | surface-localized fibrinolytic activity, peak [1] | surface-localized fibrinolytic activity, maximum increase [1]
CCO [ethanol, reference compound] | about 1.5 fold | about 3 fold | more chromogenic signal intensity | significant decrease | – | –
O=c1c(O)c(-c2ccc(O)c(O)c2)oc2cc(O)cc(O)c12 [quercetin] | – | – | more chromogenic signal intensity | markedly reduced | 64.0±6.0 | –
Oc1cc(O)c2c(c1)O[C@H](c1ccc(O)c(O)c1)[C@H](O)C2 [epicatechin] | – | – | – | – | – | 89.0±4.0 pmol/well
Oc1ccc(C=Cc2cc(O)cc(O)c2)cc1 [resveratrol] | – | – | more chromogenic signal intensity | markedly reduced | 55.0±6.0 | –
catechin | – | – | more chromogenic signal intensity | markedly reduced | – | 91.5±5.0 pmol/well
